Read-outs that look alike come from different tables or passages of the source.
Columns and labels:
[1] = target: T1, cloned recombinant human HDAC-1 (Homo sapiens, UniProt Q13547); test: Human HDAC-1 enzyme inhibition, Assay 1 ([3H]-acetylated histone substrate, scintillation counting); assay type: biochemical
T1 construct: made in house; host or cells: Baculovirus insect cell expression system
Method in brief: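 Activity read as [3H]-acetic acid liberated from labeled substrate, ethyl acetate-extracted and scintillation-counted. Compounds preincubated 30 min at 4° C. with baculovirus-expressed, purified human HDAC-1. Dose-response curves give IC50 as concentration producing fifty percent of maximal inhibition.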

[2] = test system: acetylated histone H-4 in T24 human bladder cancer cells; test: Histone H4 acetylation in whole cells by immunoblots; assay type: cell-based; conditions: 16 h
Procedure: T24 human bladder cancer cells growing in culture were incubated with HDAC inhibitors for 16 h. […] of total histone protein was loaded onto SDS/PAGE and transferred to nitrocellulose membranes. Membranes were probed with polyclonal antibodies specific for acetylated histone H-4 (Upstate Biotech Inc.), followed by horse radish peroxidase conjugated secondary antibodies (Sigma). Enhanced Chemiluminescence (ECL) (Amersham) detection was performed using Kodak films (Eastman Kodak). Acetylated H-4 signal was quantified by densitometry.

HCT116 cells = test: MTT assay; assay type: cell-based; conditions: Homo sapiens, HCT116 cells, 72 hours
Method in brief: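 Read-out: MTT (0.5 mg/ml final, 4 h) after solubilization in 50% DMF/20% SDS, pH 4.7, with OD translated into cell number via the line's growth curve. Compound treatment lasted 72 h at 37 °C in 5% CO2, starting a day after plating.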

[3] = Table 5b, read-out: Human HDAC-1 IC50
[4] = T-24, Table 5b, read-out: H4Ac (T24) EC50
[5] = Table 5a, read-out: Human HDAC-1 IC50
[6] = T-24, Table 5a, read-out: H4Ac (T24) EC50
[7] = Table 5F, read-out: Human HDAC-1 IC50
[8] = T-24, Table 5F, read-out: H4 Ac (T24) EC50
[9] = Table 5E, read-out: Human HDAC-1 IC50
[10] = T-24, Table 5E, read-out: H4 Ac (T24) EC50
[11] = Table 5c, read-out: Human HDAC-1 IC50
[12] = T-24, Table 5c, read-out: H4Ac (T24) EC50

T1 sequence (Q13547 whole entry): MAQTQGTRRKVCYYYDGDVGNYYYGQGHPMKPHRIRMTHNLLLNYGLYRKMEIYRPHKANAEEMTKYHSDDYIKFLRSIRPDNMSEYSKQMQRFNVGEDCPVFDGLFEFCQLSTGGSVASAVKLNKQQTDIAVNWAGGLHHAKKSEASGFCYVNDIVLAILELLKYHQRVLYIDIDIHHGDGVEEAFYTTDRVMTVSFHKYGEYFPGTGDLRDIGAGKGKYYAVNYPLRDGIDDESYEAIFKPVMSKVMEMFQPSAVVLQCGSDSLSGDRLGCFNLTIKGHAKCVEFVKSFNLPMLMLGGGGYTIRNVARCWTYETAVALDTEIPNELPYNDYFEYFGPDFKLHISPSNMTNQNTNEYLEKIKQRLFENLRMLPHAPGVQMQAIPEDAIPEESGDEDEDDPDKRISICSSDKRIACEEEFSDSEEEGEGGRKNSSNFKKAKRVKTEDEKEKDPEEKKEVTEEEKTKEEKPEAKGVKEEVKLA

Compound	IC50 [1, 7] [nM]	EC50 [2, 8] [nM]	IC50 (HCT116 cells; HCT-116, 72 h, Table 5F) [nM]	also measured
COc1nc(NCc2ccc(C(=O)Nc3ccccc3N)cc2)nc(OC)n1 [Cpd 212]	–	–	–	IC50 [1, 3]: 3000 nM; EC50 [2, 4]: 1000 nM; IC50 (HCT116 cells; HCT-116, 72 h, Table 5b): 1000 nM
COc1cc(Nc2nc(N)nc(NCc3ccc(C(=O)Nc4ccccc4N)cc3)n2)cc(OC)c1OC [Cpd 21, N-(2-Amino-phenyl)-4-{[4-amino-6-(3,4,5-trimethoxy-phenylamino)-[1,3,5]triazin-2-ylamino]-methyl}-benzamide]	–	–	–	IC50 [1, 5]: 4000 nM; EC50 [2, 6]: 25000 nM; IC50 (HCT116 cells; HCT-116, 72 h, Table 5a): 4000 nM
COc1ccc(N(Cc2ccc(C(=O)Nc3ccccc3N)cc2)C(=O)Nc2ccccc2)cc1OC [Cpd 373, N-(2-Amino-phenyl)-4-[1-(3,4-dimethoxy-phenyl)-3-phenyl-ureidomethyl]-benzamide]	4000	1000	400	–
Nc1ccccc1NC(=O)c1ccc(NCc2ccc(F)cc2)nc1 [Cpd 175]	–	–	–	IC50 [1, 9]: 4000 nM; EC50 [2, 10]: 3000 nM; IC50 (HCT116 cells; HCT-116, 72 h, Table 5E): 500 nM
Nc1ccccc1NC(=O)/C=C/c1ccc(NC(=O)OCc2cccnc2)cc1 [Cpd 55b]	–	–	–	IC50 [1, 11]: 3000 nM; EC50 [2, 12]: 3000 nM; IC50 (HCT116 cells; HCT-116, 72 h, Table 5c): 8000 nM
COc1ccc(CCNc2nc(NCc3ccc(C(=O)Nc4ccccc4N)cc3)nc(NC3CC3)n2)cc1 [Cpd 476]	–	–	–	IC50 [1, 3]: 2000 nM; EC50 [2, 4]: 2000 nM; IC50 (HCT116 cells; HCT-116, 72 h, Table 5b): 1000 nM
CN(C)c1nc2cc(NCc3ccc(C(=O)Nc4ccccc4N)cc3)ccc2s1 [Cpd 448, N-(2-Amino-phenyl)-4-[(2-dimethylamino-benzothiazol-5-ylamino)-methyl]-benzamide]	3000	2000	200	–
COc1cccc(NCc2ccc(C(=O)Nc3ccccc3N)cc2)n1 [Cpd 390, N-(2-Amino-phenyl)-4-[(6-methoxy-pyridin-2-ylamino)-methyl]-benzamide]	2000	5000	800	–
COc1ccc(NCc2ccc(C(=O)Nc3ccccc3N)cc2)c(C)c1 [Cpd 403, N-(2-Amino-phenyl)-4-[(4-methoxy-2-methyl-phenylamino)-methyl]-benzamide]	1000	1000	200	–
COc1ccc(NCc2ccc(C(=O)Nc3ccccc3N)cc2)cc1OCc1cccnc1 [Cpd 405]	5000	5000	1000	–
COc1ccc2nc(SCc3ccc(C(=O)Nc4ccccc4N)cc3)[nH]c2c1 [compound 376, N-(2-Amino-phenyl)-4-(5-methoxy-1H-benzimidazol-2-yl-sulfanylmethyl)-benzamide]	3000	1000	100	–
CC1(C)C2CC[C@@](C)(C2)[C@H]1Nc1nc(N)nc(NCc2ccc(C(=O)Nc3ccccc3N)cc2)n1 [Cpd 17]	–	–	–	IC50 [1, 5]: 900 nM; EC50 [2, 6]: 2000 nM; IC50 (HCT116 cells; HCT-116, 72 h, Table 5a): 1000 nM
Nc1ccccc1NC(=O)c1ccc(CSc2nnc(-c3ccccc3)o2)cc1 [Cpd 177]	–	–	–	IC50 [1, 9]: 1000 nM; EC50 [2, 10]: 1000 nM; IC50 (HCT116 cells; HCT-116, 72 h, Table 5E): 400 nM
COc1ccc(NCc2ccc(C(=O)Nc3cscc3N)cc2)cc1OC [424c, N-(4-Aminothiophen-3-yl)-4-[(3,4-dimethoxyphenylamino)-methyl]-benzamide]	3000	3000	800	–
Nc1ccccc1NC(=O)c1ccc(Cn2c(=O)[nH]c3ccsc3c2=O)cc1 [Cpd 343, N-(2-Amino-phenyl)-4-(2,4-dioxo-1,4-dihydro-2H-thieno[3,2-d]pyrimidin-3-ylmethyl)-benzamide]	500	1000	300	–
COc1ccc(CCNc2ccc(/C=C/C(=O)Nc3ccccc3N)cn2)cc1 [Cpd 95, N-(2-aminophenyl)-3-{6-[2-(4-methoxy-phenyl)-ethylamino]-pyridin-3-yl}-acrylamide]	–	–	–	IC50 [1, 11]: 3000 nM; EC50 [2, 12]: 10000 nM; IC50 (HCT116 cells; HCT-116, 72 h, Table 5c): 2000 nM
Nc1ccccc1NC(=O)c1ccc(NCc2cccc(F)c2)cc1 [Cpd 416, N-(2-Amino-phenyl)-4-(3-fluoro-benzylamino)-benzamide]	3000	1000	600	–
Cc1cc(C)nc(SCc2ccc(C(=O)Nc3ccccc3N)cc2)n1 [Cpd 378, N-(2-Amino-phenyl)-4-(4,6-dimethyl-pyrimidin-2-ylsulfanylmethyl)-benzamide]	2000	2000	700	–
Nc1ccccc1NC(=O)c1ccc(CNCCc2c[nH]c3ccccc23)cc1 [Cpd 436]	5000	5000	800	–

Compound	IC50 [1, 7] [nM]	EC50 [2, 8] [nM]	IC50 (HCT116 cells; HCT-116, 72 h, Table 5F) [nM]	also measured
COc1ccc(CNC2(C#Cc3ccc(C(=O)Nc4ccccc4N)cc3)CCCCC2)cc1 [Cpd 192]	2000	3000	1000	–
COc1cc(NCc2ccc(C(=O)Nc3ccccc3N)cc2)ncn1 [Cpd 385]	3000	2000	1000	–
Nc1ccccc1NC(=O)c1ccc(CSc2cccc3cccnc23)cc1 [Cpd 391, N-(2-Amino-phenyl)-4-(quinolin-8-ylsulfanylmethyl)-benzamide]	1000	3000	900	–
CCn1c(=O)n(Cc2ccc(C(=O)Nc3ccccc3N)cc2)c(=O)c2sccc21 [Cpd 255]	2000	1000	800	–
CC(=O)Nc1sc(Cc2ccc(C(=O)Nc3ccccc3N)cc2)cc1C(N)=O [Cpd 579, 2-Acetylamino-5-[4-(2-amino-phenyl-carbamoyl)-benzyl]-thiophene-3-carboxamide]	2000	1000	500	–
COCCNc1nc(NCCc2ccccc2)nc(NCc2ccc(C(=O)Nc3ccccc3N)cc2)n1 [Cpd 474]	–	–	–	IC50 [1, 3]: 3000 nM; EC50 [2, 4]: 1000 nM; IC50 (HCT116 cells; HCT-116, 72 h, Table 5b): 1000 nM
Nc1ccccc1NC(=O)c1ccc(CNc2ncnc(NCCc3ccccc3)n2)cc1 [Cpd 210]	–	–	–	IC50 [1, 3]: 3000 nM; EC50 [2, 4]: 1000 nM; IC50 (HCT116 cells; HCT-116, 72 h, Table 5b): 900 nM
CCCCn1cnc2c(NCc3ccc(C(=O)Nc4ccccc4N)cc3)nc(Cl)nc21 [Cpd 333, N-(2-Amino-phenyl)-4-[(9-butyl-2-chloro-9H-purin-6-ylamino)-methyl]-benzamide]	2000	1000	100	–
CN1CCN(c2ccc(NCc3ccc(/C=C/C(=O)Nc4ccccc4N)cc3)cc2C(F)(F)F)CC1 [Cpd 526]	–	–	–	IC50 ([1]; Table 5d, read-out: HDAC-1 IC50): 2000 nM; EC50 ([2]; T-24, Table 5d, read-out: H4Ac(T24) EC50): 1000 nM; IC50 (HCT116 cells; HCT-116, Table 5d): 800 nM
Nc1ccccc1NC(=O)c1ccc(CC2COc3ccccc3C2)cc1 (stereo not drawn) [compound 265, N-(2-Amino-phenyl)-4-chroman-3-ylmethyl-benzamide]	2000	3000	2000	–
Nc1ccccc1NC(=O)c1ccc(CC2Cc3ccccc3C2=O)cc1 (stereo not drawn) [compound 272, N-(2-Amino-phenyl)-4-(1-oxo-indan-2-ylmethyl)-benzamide]	2000	< 1000	600	–
Cc1onc2c1c(=O)n(Cc1ccc(C(=O)Nc3ccccc3N)cc1)c1cccc(Cl)c21 [Cpd 247]	3000	2000	600	–
CCn1c(=O)n(Cc2ccc(C(=O)Nc3ccccc3N)cc2)c(=O)c2ccccc21 [Cpd 181]	500	1000	400	–
Nc1ccccc1NC(=O)c1ccc(CNc2nc(Cl)nc3[nH]cnc23)cc1 [Cpd 332, N-(2-Amino-phenyl)-4-[(2-chloro-9H-purin-6-ylamino)-methyl]-benzamide]	400	5000	1000	–
Nc1ccccc1NC(=O)c1ccc(CN2C(=O)COc3ccccc32)cc1 [Cpd 362, N-(2-Amino-phenyl)-4-(3-oxo-2,3-dihydro-benzo[1,4]oxazin-4-ylmethyl)-benzamide]	2000	1000	700	–
COc1ccc(-c2cc(Cl)nc(NCc3ccc(C(=O)Nc4ccccc4N)cc3)n2)cc1OC [Cpd 439]	3000	1000	400	–
Nc1ccccc1NC(=O)c1ccc(CNc2nc(Cl)cc(Cl)n2)cc1 [Cpd 419, N-(2-Amino-phenyl)-4-[(4,6-dichloro-pyrimidin-2-ylamino)-methyl]-benzamide]	2000	5000	1000	–
COc1ccc(NCc2ccc(C(=O)Nc3ccccc3N)cc2)cn1 [Cpd 421]	4000	1000	600	–
Nc1ccccc1NC(=O)c1ccc(CNc2nc(NCc3cccnc3)nc(NC3Cc4ccccc4C3)n2)cc1 [Cpd 30]	–	–	–	IC50 [1, 5]: 1000 nM; EC50 [2, 6]: 1000 nM; IC50 (HCT116 cells; HCT-116, 72 h, Table 5a): 3000 nM

Reference: patent US7868204B2, “Inhibitors of histone deacetylase” (MethylGene Inc., priority 2001, dated 2011)
